The values below come from publication PMC11054433, “Nature-Inspired 1-Phenylpyrrolo[2,1-a]isoquinoline Scaffold for Novel Antiproliferative Agents Circumventing P-Glycoprotein-Dependent Multidrug Resistance” (Pharmaceuticals, 2024).

Converted amounts (≈) assume the structure as drawn. “And” between values parts separate entries of the source, which are not always exact repeats. Identical values can stand only once. Like-named read-outs stand apart in the source and are kept apart here.

For series [1], the system named is RD (rhabdomyosarcoma) cells. The series is described as follows: MTT antiproliferative (cytotoxicity) assay, RD cells. In kind it is cell-based, Human. Particulars: Homo sapiens, Rhabdomyosarcoma cell, 72 h, mean (SD), triplicate, n.a. = not active at 100 μM, >100 = less than 60% inhibition at 100 μM. As to the method: (§1) The newly synthesized 1-Ph-DHPIQs, along with the previously reported derivatives 4a, 4c, 6a and 6c, with camptothecin and doxorubicin as positive controls, were tested at the maximum concentration of 100 μM for their antiproliferative activity, using an MTT assay on RD, HCT116, HeLa and A549 cancer cell lines. Compounds showing more than 50% inhibition were tested at lower scalar concentrations, and IC50 values were calculated by interpolation of the dose-response curves (Table 1). […]
(§2) The antiproliferative activity of the newly synthesized compounds, along with some previously reported analogs, and camptothecin and doxorubicin as positive controls was determined by the MTT (3-(4,5-dimethylthiazol-2-yl)-2,5-diphenyltetrazolium bromide) assay. The cells were seeded at a concentration of 1 × 10 ^4 cells/200 μL in a 96-well plate and cultured at 37 °C in a humidified atmosphere with 5% CO2. After 24 h of incubation, scalar concentrations of each test compound (100 to 1.56 μmol·L^−1) were added to the cancer cell culture and the cells were then cultured under the same conditions for 72 hr. Each concentration of the test compound was assayed in triplicate. […] Wells with the 0.1% v/v DMSO were used as controls. After incubation, 20 μL of MTT (5 mg·mL^−1) was added to each well and the plates were incubated for a further 2 h. Next, media were removed from the plates, and 100 μL of DMSO was added to each well to dissolve the formed formazan crystals. Using a flatbed analyzer (Victor^3, PerkinElmer, Waltham, MA, USA), the optical density was determined at 530 nm, minus the measured background absorbance at 620 nm. The concentration value, which causes 50% inhibition of cell population growth (IC50), was determined from the dose-dependent curves using the OriginPro 9.0 software.

For the next series, the target named is P-glycoprotein (P-gp) (Homo sapiens, UniProt P08183). Nature of the series: Calcein-AM transport inhibition in MDCK-MDR1 cells overexpressing P-gp. To be noted: for IC50: calcein-AM, mean (SD), at least two independent experiments in triplicate; for P-gp/MRP1 selectivity (toward P-gp): ratio of MRP1 and P-gp inhibition potency.
Chain of P-glycoprotein (P-gp) (P08183 whole entry): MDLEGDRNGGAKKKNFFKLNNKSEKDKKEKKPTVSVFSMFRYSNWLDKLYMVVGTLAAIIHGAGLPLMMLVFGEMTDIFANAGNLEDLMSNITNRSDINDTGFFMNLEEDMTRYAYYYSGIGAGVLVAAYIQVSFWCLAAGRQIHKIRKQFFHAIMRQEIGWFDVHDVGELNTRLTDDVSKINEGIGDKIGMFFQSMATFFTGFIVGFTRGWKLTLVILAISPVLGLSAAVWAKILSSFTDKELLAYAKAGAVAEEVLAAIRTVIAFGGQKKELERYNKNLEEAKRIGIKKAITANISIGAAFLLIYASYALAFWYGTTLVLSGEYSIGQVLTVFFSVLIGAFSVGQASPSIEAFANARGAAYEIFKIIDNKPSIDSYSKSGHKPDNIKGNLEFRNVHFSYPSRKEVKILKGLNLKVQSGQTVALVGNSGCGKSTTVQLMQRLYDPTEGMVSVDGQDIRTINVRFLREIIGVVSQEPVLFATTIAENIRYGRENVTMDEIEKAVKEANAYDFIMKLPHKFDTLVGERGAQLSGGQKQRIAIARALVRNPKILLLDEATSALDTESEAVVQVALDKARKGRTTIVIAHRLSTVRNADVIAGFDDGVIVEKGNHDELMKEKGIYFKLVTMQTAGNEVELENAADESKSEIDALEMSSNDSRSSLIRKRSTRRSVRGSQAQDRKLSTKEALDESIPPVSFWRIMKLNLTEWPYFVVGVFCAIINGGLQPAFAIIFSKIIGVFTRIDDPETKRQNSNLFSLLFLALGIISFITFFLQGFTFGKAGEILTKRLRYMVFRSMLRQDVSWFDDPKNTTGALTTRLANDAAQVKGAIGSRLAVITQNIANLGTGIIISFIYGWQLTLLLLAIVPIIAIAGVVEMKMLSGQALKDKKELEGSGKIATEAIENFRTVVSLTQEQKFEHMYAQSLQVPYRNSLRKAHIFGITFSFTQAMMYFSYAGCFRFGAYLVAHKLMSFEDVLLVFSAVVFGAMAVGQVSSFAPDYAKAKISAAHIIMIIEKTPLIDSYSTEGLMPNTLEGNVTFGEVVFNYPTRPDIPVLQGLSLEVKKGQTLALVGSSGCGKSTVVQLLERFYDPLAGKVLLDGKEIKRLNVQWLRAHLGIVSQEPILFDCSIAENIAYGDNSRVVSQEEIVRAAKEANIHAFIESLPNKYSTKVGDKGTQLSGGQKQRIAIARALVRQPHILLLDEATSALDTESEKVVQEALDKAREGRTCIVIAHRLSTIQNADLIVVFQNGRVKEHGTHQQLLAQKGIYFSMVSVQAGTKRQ
Series [2] concerns the target multidrug-resistance-associated protein-1 (MRP1) (Homo sapiens, UniProt P33527). The series is described as follows: Calcein-AM transport inhibition in MDCK-MRP1 cells overexpressing MRP1.
Description: (§3) The P-gp inhibitory potency of eight DHPIQs was evaluated by measuring the transport inhibition of calcein-AM, a profluorescent P-gp substrate, in the MDCK-MDR1 cell line overexpressing P-gp. Moreover, to evaluate the MRP1 inhibitor activity, the same compounds were screened in MDCK-MRP1 cells overexpressing MRP1.
(§4) According to previously described assays [9], MDCK-MDR1 and MDCK-MRP1 cell lines (50,000 cells per well) were seeded into a black CulturePlate 96-well plate with 100 μL medium and allowed to become confluent overnight. […] Saline buffer (100 μL) was added to each well, and the plate was read by a PerkinElmer Victor3 spectrofluorimeter at excitation and emission wavelengths of 485 nm and 535 nm, respectively. In these experimental conditions, calcein cell accumulation in the absence and in the presence of the test compound was evaluated, and the fluorescence basal level was estimated by untreated cells. In the treated wells, the increase of fluorescence with respect to basal level was measured. IC50 values were determined by interpolating the curve of fluorescence increase percentage versus log [conc.].
The nature of series [3]: Kinetic solubility in PBS by RP-HPLC. Type of series: physicochemical. Particulars: phosphate buffered saline, 25 °C, aqueous buffer, kinetic from dmso stock; PBS (50 mM, pH 7.4, 0.15 M KCl) at 25 ± 1 °C; read-out: S (solubility). As to the method:
Sample solution at 200 μM in PBS (50 mM, pH 7.4, KCl 0.15 M) from a 10 mM stock solution in DMSO was incubated at room temperature (25 ± 1 °C) for 2 h, following shaking of the suspension on an orbital shaker at 250 rpm, and then separated by […]. Immediately after the filtration step, 100 µL of filtrate was transferred into 100 µL of 1:1 (v/v) mixture of DMSO and PBS (50 mM, pH 7.4, KCl 0.15 M), to avoid precipitation from the saturated solution and analyzed by HPLC. The peak area was plotted against a calibration curve of the tested compound in MeOH [21]. Analytical conditions were as follows. Mobile Phase: MeOH/ammonium formate 20 mM pH 4.7 (70:30, 75:25); MeOH 0.1% TFA/H2O 0.1% TFA (70:30, 60:40); stationary phase: Phenomenex, Kinetex 5 μ, C18, 100 Å (150 × 4.6 mm); flux: 1 mL/min; injection: 10 μL, 265, 290, 320 nm wavelength. HPLC analyses were performed on an Agilent HPLC 1260 Infinity Series Integrated System (Agilent Technologies, Milan, Italy).

The target in series [4] is human serum albumin (HSA) (Homo sapiens, UniProt P02768). Nature of the series: Binding affinity to immobilized HSA by surface plasmon resonance (SPR).
Chain of human serum albumin (HSA) (P02768 25-609): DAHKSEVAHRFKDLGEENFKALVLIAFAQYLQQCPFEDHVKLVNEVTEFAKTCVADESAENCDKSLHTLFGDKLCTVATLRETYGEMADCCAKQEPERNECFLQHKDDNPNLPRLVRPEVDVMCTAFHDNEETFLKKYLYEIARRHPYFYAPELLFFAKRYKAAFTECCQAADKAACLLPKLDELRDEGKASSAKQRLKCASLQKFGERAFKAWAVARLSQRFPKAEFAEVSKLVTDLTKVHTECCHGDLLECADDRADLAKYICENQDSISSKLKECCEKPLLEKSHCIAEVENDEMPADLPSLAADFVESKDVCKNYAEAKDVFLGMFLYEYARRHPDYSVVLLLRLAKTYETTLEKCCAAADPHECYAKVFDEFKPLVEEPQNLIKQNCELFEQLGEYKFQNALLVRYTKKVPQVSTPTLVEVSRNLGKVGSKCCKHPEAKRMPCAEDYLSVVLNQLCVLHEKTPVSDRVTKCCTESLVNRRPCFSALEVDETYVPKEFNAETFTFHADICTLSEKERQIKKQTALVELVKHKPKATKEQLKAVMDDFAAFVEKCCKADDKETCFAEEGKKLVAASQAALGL
Description: By plotting the response at equilibrium, the dissociation constant (KD) value was determined for each test compound.
Fatty acid-free HSA (A3782 from Merck, KGaA Sigma-Aldrich, Darmstadt, Germany) was applied to functionalize the surface of a COOH V sensor chip (Pall FortèBio, Fremont Boulevard, CA, USA), by using amine coupling (EDC/NHS). HSA aqueous stock solution was diluted at the final concentration of 50 μg·mL^−1 in 10 mM sodium acetate buffer (pH 5.0), and immobilization in peripheral flow cells 1 and 3 (unmodified dextran surface in middle flow cell 2 used as a reference) at a final apparent level of about 5000 RU was achieved by applying the following protocol: injection of EDC/NHS (freshly mixed 0.4 M EDC and 0.1 M NHS) 1:1 v/v at a flow of 25 μL·min^−1 for 4 min; injection of HSA solution at a flow of 25 μL·min^−1 for 8 min; capping on unreacted activated carboxyl groups by injection of 1 M ethanolamine solution (pH 9) at a flow of 25 μL·min^−1 for 8 min. The functionalized surface was then treated with repeated injection of 4 M NaCl, as a regenerating reagent, and conditioned overnight prior to use with pH 7.4 PBS (10 mM NaH2PO4 and 150 mM NaCl) as a running buffer. Each cycle (without the need of regeneration) for binding assay to HSA was carried out in PBS/4% v/v DMSO and consisted of a run buffer injection (60 s), injection of analyte single concentration for 120 s (ranging from 1 to 200 μM) at a flow 20 μL·min^−1, and a dissociation phase for 150 s (flow 20 μL·min^−1). Each measurement was performed at least in triplicate and analyzed by using QDAT software, vers 2.2.0.7 (non-linear regression analysis of 1:1 stoichiometric reversible binding model), and double referencing.
The test system of series [5] is HeLa (adenocarcinoma of the cervix uterus) cells. Nature of the series: MTT antiproliferative (cytotoxicity) assay, HeLa cells. Particulars: Homo sapiens, HeLa, 72 h, mean (SD), triplicate, n.a. = not active at 100 μM, >100 = less than 60% inhibition at 100 μM. Type of series: cell-based, Human. As to the method: as §1, §2
Series [6] deals with A549 (lung adenocarcinoma) cells. Nature of the series: MTT antiproliferative (cytotoxicity) assay, A549 cells. Type of series: cell-based, Human. Particulars: Homo sapiens, A549, 72 h, mean (SD), triplicate, n.a. = not active at 100 μM, >100 = less than 60% inhibition at 100 μM.
Description: The antiproliferative activity of the newly synthesized compounds, along with some previously reported analogs, and camptothecin and doxorubicin as positive controls was determined by the MTT (3-(4,5-dimethylthiazol-2-yl)-2,5-diphenyltetrazolium bromide) assay. […] Each concentration of the test compound was assayed in triplicate. […] Wells with the 0.1% v/v DMSO were used as controls. After incubation, 20 μL of MTT (5 mg·mL^−1) was added to each well and the plates were incubated for a further 2 h. Next, media were removed from the plates, and 100 μL of DMSO was added to each well to dissolve the formed formazan crystals. Using a flatbed analyzer (Victor^3, PerkinElmer, Waltham, MA, USA), the optical density was determined at 530 nm, minus the measured background absorbance at 620 nm.
Series [7] concerns HCT116 (colon cancer) cells. The series is described as follows: MTT antiproliferative (cytotoxicity) assay, HCT116 cells. Type of series: cell-based, Human. Particulars: Homo sapiens, HCT-116, 72 h, mean (SD), triplicate, n.a. = not active at 100 μM, >100 = less than 60% inhibition at 100 μM. As to the method: as §1, §2
Series [8] in a line: Lipophilicity by RP-HPLC (polycratic capacity factor). Type of series: physicochemical. To be noted: capacity factor extrapolated to 100% aqueous mobile phase, aqueous component pH 4.7. As to the method: To quantitate the effect of hydrophobicity on the biological activity of the examined compounds, a relative lipophilicity scale was determined by RP-HPLC [20]. The polycratic capacity factor (log k′w) for each compound in Table 2 was experimentally determined (details in the experimental section) and compared with 1-octanol–water partition coefficient calculated (Clog P) with ACDLabs software (release 10.0; Advanced Chemistry Development, Inc., Toronto, ON, Canada). Log k′w values are quite well correlated with Clog Ps for the whole series (r^2 = 0.791). However, omitting from the regression the two Mannich bases 8b and 8c, which, due to their basicity (pKas about 6.9, estimated by ACDLabs software), should be predominantly in the protonated forms at pH 4.7 (i.e., the pH of the aqueous component of the mobile phase in RP-HPLC), the correlation slightly improves (r^2 = 0.859), providing a linear equation with a slope equal to +0.8 and an intercept of about −0.1.
The lipophilicity parameters were determined by an RP-HPLC technique. Methanol solution of DHPIQ derivatives (1 mg/mL) were analyzed by an Agilent 1260 infinite HPLC system (Agilent Technologies, Milan, Italy) equipped with a diode array detector (DAD), and a Phenomenex, Kinetex 5 μ, C18, 100 Å (150 × 4.6 mm), and eluted with different percentage of mobile phase composition (0.05 increments of MeOH volume fractions in 20 mM ammonium formate buffer at pH 4.7 or water 0.1% v/v TFA, with φ ranging between 0.85 and 0.30). The chromatographic measurements were carried out at 25 ± 1 °C at a flow rate of 1 mL·min^−1 and at 265, 290, 320 nm wavelengths. The log of capacity factors (log k′ = log (tR − t0)/t0) of each compound at different mobile phase compositions was calculated; tR represents the retention time of the solute and t0 is the column dead time, measured as the elution time of a KNO3 solution in MeOH. For each compound, the log k′ values increased linearly with decreasing MeOH volume fraction. The logarithms of the capacity factor extrapolated to 100% aqueous mobile phase (log k′w) were calculated from the linear regressions on at least five data points (r^2 > 0.9984).

Series [9] in a line: Hydrolytic stability monitored by RP-HPLC. In kind it is physicochemical. Particulars: 0.15 M KCl. An excerpt: In particular, the transformation of the DHPIQ-2-aldehyde via Mannich reaction (8b,c) opens the road to future developments of new water-soluble antiproliferative DHPIQ derivatives endowed with the ability to inhibit P-gp and reverse MDR.

Chain of multidrug-resistance-associated protein-1 (MRP1) (P33527 whole entry): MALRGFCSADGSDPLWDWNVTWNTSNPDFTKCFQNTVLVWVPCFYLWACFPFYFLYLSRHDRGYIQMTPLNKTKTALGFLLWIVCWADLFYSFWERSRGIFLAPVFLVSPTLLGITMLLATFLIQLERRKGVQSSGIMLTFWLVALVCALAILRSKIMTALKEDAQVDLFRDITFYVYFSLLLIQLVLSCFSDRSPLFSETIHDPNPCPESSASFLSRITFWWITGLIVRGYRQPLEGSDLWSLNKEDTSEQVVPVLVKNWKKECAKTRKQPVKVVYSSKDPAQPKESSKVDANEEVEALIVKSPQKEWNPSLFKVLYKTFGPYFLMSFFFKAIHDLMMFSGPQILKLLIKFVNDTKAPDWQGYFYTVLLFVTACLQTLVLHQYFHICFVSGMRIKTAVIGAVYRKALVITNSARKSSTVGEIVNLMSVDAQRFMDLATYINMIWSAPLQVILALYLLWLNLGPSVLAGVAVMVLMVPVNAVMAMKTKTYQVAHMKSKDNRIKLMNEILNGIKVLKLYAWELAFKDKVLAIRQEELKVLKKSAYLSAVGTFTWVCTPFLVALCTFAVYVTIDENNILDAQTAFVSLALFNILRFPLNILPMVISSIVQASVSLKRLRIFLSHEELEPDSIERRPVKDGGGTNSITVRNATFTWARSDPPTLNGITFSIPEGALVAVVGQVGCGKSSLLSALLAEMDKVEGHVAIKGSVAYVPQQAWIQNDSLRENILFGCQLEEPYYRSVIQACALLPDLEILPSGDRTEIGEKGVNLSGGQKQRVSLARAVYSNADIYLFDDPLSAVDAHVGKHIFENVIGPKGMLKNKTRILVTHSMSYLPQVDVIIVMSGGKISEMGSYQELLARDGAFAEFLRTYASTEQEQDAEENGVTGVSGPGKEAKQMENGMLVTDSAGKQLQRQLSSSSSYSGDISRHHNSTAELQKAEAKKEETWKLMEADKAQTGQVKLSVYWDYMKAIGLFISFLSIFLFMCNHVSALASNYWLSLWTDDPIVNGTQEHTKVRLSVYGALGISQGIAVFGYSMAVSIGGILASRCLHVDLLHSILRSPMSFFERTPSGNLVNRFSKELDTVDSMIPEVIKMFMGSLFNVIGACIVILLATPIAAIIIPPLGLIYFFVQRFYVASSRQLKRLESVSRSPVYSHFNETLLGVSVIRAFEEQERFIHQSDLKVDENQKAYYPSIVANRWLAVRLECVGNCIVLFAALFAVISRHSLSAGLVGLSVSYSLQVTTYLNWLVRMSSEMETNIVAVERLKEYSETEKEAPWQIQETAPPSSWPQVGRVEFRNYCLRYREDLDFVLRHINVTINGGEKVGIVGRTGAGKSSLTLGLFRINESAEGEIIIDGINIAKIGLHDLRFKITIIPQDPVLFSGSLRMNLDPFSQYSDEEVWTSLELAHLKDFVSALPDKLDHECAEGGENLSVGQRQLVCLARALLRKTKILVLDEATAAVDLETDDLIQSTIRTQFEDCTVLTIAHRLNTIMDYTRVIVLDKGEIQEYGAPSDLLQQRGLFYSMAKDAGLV
Description for P-glycoprotein (P-gp): as §3, §4

Turning to `CCOc1ccc(-c2c(C#N)c(-c3ccccc3)n3c2-c2cc(OCC)c(OCC)cc2CC3)cc1OCC` [Compound 6e, 1-(3,4-Diethoxyphenyl)-8,9-diethoxy-3-phenyl-5,6-dihydropyrrolo [2,1-a]isoquinoline-2-carbonitrile], the melting point (commonly the temperature, or range, at which the solid turns liquid) was 271 to 273 °C. Also, the IC50 (usually the concentration that inhibits the measured activity by half) in [1] was more than 100 µM.
Turning to `CCOc1ccc(-c2c(C(=O)O)cn3c2-c2cc(OCC)c(OCC)cc2CC3)cc1OCC` [Compound 5c, 1-(3,4-Diethoxyphenyl)-8,9-diethoxy-5,6-dihydropyrrolo[2,1-a]isoquinoline-2-carboxylic acid], the IC50 on P-glycoprotein (P-gp) (P-gp, IC50, MDCK-MDR1 cells) was < 0.5 µM and 0.35 µM; in series [2], more than 100 µM. For the same compound, the “P-gp/MRP1 selectivity (toward P-gp)” value on P-glycoprotein (P-gp) was “more than two orders of magnitude”. The solubility – broadly, the concentration that dissolves in the medium under given conditions – at 2 h in series [3] was found to be 14.6 µM (≈ 6.8 µg/mL). Further, binding in series [4] was characterised by a dissociation constant (Kd) of 5.2 µM.
With `COc1cccc2c1C(=O)c1c(O)c3c(c(O)c1C2=O)C[C@@](O)(C(=O)CO)C[C@@H]3O[C@H]1C[C@H](N)[C@H](O)[C@H](C)O1` [Doxorubicin, reference compound], the IC50 in series [5] turned out to be 0.89 µM; in [1], 0.29 µM; in series [6] it was 0.38 µM; in series [7], 0.14 µM.
Taken in the same sequence, the figures for `CC[C@@]1(O)C(=O)OCc2c1cc1n(c2=O)Cc2cc3ccccc3nc2-1` [Camptothecin, reference compound] were 0.33 µM, 16 µM, 3.32 µM and 12.3 µM.
`COc1cc2c(cc1OC)-c1c(-c3ccc(Cl)cc3)c(C(=O)O)cn1CC2` [Compound 5a, 1-(4-Chlorophenyl)-8,9-dimethoxy-5,6-dihydropyrrolo[2,1-a]isoquinoline-2-carboxylic acid] displayed a melting point of 210 to 215 °C. The same compound registered an IC50 in series [5] of more than 100 µM. In [1], the 50% inhibitory concentration (IC50) was more than 100 µM. This compound had an IC50 in series [6] of more than 100 µM. In addition, the half-inhibitory concentration (IC50) in series [7] was more than 100 µM.
With `COc1cc2c(cc1OC)CN(CCC=C1CCCc3c(OC)cccc31)CC2` [MC18, reference compound], at P-glycoprotein (P-gp) (read-out: P-gp, IC50, MDCK-MDR1 cells), the IC50 was 1.2 µM.
Regarding `COc1ccc(-c2c(C=O)cn3c2-c2cc(OC)c(OC)cc2CC3)cc1` [Compound 4b], the IC50 was 4.48 µM at P-glycoprotein (P-gp) (P-gp, IC50, MDCK-MDR1 cells); 6.42 µM in series [2]; more than 100 µM in series [5]; 95.2 µM in series [1]; more than 100 µM in [6]; more than 100 µM in [7]. Besides, in [8], the “Log k′w” value was 3.39. Further, the solubility at 2 h in series [3] worked out at 19.8 µM (≈ 7.2 µg/mL). Further, in series [4], the Kd (in general, the constant that tells how readily two partners part at equilibrium) amounted to 1.95 µM.
With `CCOc1ccc(-c2c(C#N)cn3c2-c2cc(OCC)c(OCC)cc2CC3)cc1OCC` [Compound 6c], the IC50 at P-glycoprotein (P-gp) (P-gp, IC50, MDCK-MDR1 cells) is < 0.5 µM and 0.39 µM; in [2], more than 100 µM; in series [5], more than 100 µM; in series [1], more than 100 µM; in series [6], more than 100 µM; in series [7], more than 100 µM. Further, the “P-gp/MRP1 selectivity (toward P-gp)” value on P-glycoprotein (P-gp) is listed as “more than two orders of magnitude”. The “Log k′w” value in series [8] is 5.09. For the same compound, the solubility at 2 h in [3] is 1.06 µM (≈ 0.473 µg/mL). This compound also displayed a Kd in series [4] of 1.8 µM.
For `CCOc1ccc(-c2c(C#N)c(C)n3c2-c2cc(OCC)c(OCC)cc2CC3)cc1OCC` [Compound 6d, 1-(3,4-Diethoxyphenyl)-8,9-diethoxy-3-methyl-5,6-dihydropyrrolo[2,1-a]isoquinoline-2-carbonitrile], the IC50 in series [5], in series [1], in [6] and in series [7] was more than 100 µM each time.
Turning to `COc1cc2c(cc1OC)-c1c(-c3ccc(Cl)cc3)c(C#N)cn1CC2` [Compound 6a], the IC50 is 5.89 µM on P-glycoprotein (P-gp) (P-gp, IC50, MDCK-MDR1 cells); 16.6 µM in series [2]; more than 100 µM in series [5]; more than 100 µM in series [1]; more than 100 µM in [6]; more than 100 µM in [7]. Besides, in series [8], the “Log k′w” value is on record as 4.42. Also, the solubility at 2 h in series [3] was determined as 1.42 µM (≈ 0.518 µg/mL). The Kd in series [4] turned out to be 4.6 µM.
Take `CCOC(=O)c1cn2c(c1-c1ccc(OCC)c(OCC)c1)-c1cc(OCC)c(OCC)cc1CC2` [Compound 7c, Ethyl 1-(3,4-Diethoxyphenyl)-8,9-diethoxy-5,6-dihydro pyrrolo[2,1-a]isoquinoline-2-carboxylate]: the IC50 at P-glycoprotein (P-gp) (P-gp, IC50, MDCK-MDR1 cells) is < 0.5 µM and 0.32 µM; in [2], 3.23 µM. For the same compound, in series [9] (0.01 M HClaq, pH 2, 25 °C), the “Hydrolytic stability at pH 2” value is given as “stable over 4 h”. In addition, in series [9] (50 mM PBS, pH 7.4, 25 °C), the “Hydrolytic stability at pH 7.4” value was “stable over 4 h”. In addition, the “Log k′w” value in series [8] is on record as 5.49. For the same compound, the solubility at 2 h in series [3] came out at 41.7 µM (≈ 20.6 µg/mL). Also, the Kd in series [4] turned out to be 12.1 µM.
